# Laboratory results as given in PubChem BioAssay AID330 (DTP/NCI, 2004).
# Values joined by “and” are separate entries in the source; they are usually repeats but may differ in a detail not shown here. Identical values can stand only once. Inconclusive results and toxic doses are left out.
# Tested on: P388 leukemia ip, CD2F1 mice, survival T/C
# Assay: NCI In Vivo Anticancer Drug Screen. Data for tumor model P388 Leukemia (intraperitoneal) in CD2F1 (CDF1) mice
# Details: endpoint: median survival time, higher = longer survival
# Outline: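 Mice carrying the transplanted tumor received test compound or vehicle. Survival was recorded in each group, and the value is the treated-group measurement divided by that of the vehicle-treated control group.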
# [1] = dose: 100.0 mg/kg/injection, schedule: Q01DX009 (ip), vehicle: saline with Tween-80
smiles,measurement,setting,value
COc1cccc2c1C(=O)c1c(O)c3c(c(O)c1C2=O)C[C@@](O)(/C(C)=N/NC(=O)c1ccccc1)C[C@@H]3OC1CC(N)C(O)C(C)O1 (stereo partly specified),T/C,"dose: 0.12 mg/kg/injection, schedule: Q01DX009 (ip), vehicle: water",99 % of control and 104 % of control and 89 % of control
same,T/C,"dose: 0.5 mg/kg/injection, schedule: Q01DX005 (ip), vehicle: suspension in saline",120 % of control
same,T/C,"dose: 0.5 mg/kg/injection, schedule: Q01DX005 (iv), vehicle: suspension in saline",109 % of control
same,T/C,"dose: 0.65 mg/kg/injection, schedule: Q01DX009 (ip), vehicle: saline",168 % of control
same,T/C,"dose: 1.0 mg/kg/injection, schedule: Q01DX005 (iv), vehicle: suspension in saline",110 % of control
same,T/C,"dose: 1.0 mg/kg/injection, schedule: Q01DX009 (ip), vehicle: other",150 % of control
same,T/C,"dose: 1.08 mg/kg/injection, schedule: Q01DX009 (ip), vehicle: saline",172 % of control
same,T/C,"dose: 1.56 mg/kg/injection, schedule: Q04DX003 (ip), vehicle: saline",177 % of control
same,T/C,"dose: 1.8 mg/kg/injection, schedule: Q01DX009 (ip), vehicle: saline",190 % of control
same,T/C,"dose: 2.0 mg/kg/injection, schedule: Q01DX005 (iv), vehicle: suspension in saline",108 % of control
same,T/C,"dose: 2.0 mg/kg/injection, schedule: Q01DX009 (ip), vehicle: other",166 % of control
same,T/C,"dose: 2.0 mg/kg/injection, schedule: Q04DX003 (ip), vehicle: water",160 % of control
same,T/C,"dose: 3.0 mg/kg/injection, schedule: Q01DX009 (ip), vehicle: saline",213 % of control
same,T/C,"dose: 3.0 mg/kg/injection, schedule: Q04DX003 (ip), vehicle: saline",150 % of control
same,T/C,"dose: 3.0 mg/kg/injection, schedule: Q04DX003 (ip), vehicle: water",115 % of control
same,T/C,"dose: 3.13 mg/kg/injection, schedule: Q04DX003 (ip), vehicle: saline",176 % of control
same,T/C,"dose: 3.2 mg/kg/injection, schedule: Q01DX001 (ip), vehicle: water",153 % of control
same,T/C,"dose: 3.24 mg/kg/injection, schedule: Q04DX003 (ip), vehicle: water",153 % of control
same,T/C,"dose: 4.0 mg/kg/injection, schedule: Q01DX005 (ip), vehicle: saline",181 % of control
same,T/C,"dose: 4.0 mg/kg/injection, schedule: Q01DX005 (iv), vehicle: saline",104 % of control
same,T/C,"dose: 4.0 mg/kg/injection, schedule: Q01DX009 (ip), vehicle: other",175 % of control
same,T/C,"dose: 4.2 mg/kg/injection, schedule: Q01DX001 (ip), vehicle: water",158 % of control
same,T/C,"dose: 5.0 mg/kg/injection, schedule: Q01DX001 (ip), vehicle: saline",168 % of control
same,T/C,"dose: 5.0 mg/kg/injection, schedule: Q04DX003 (ip), vehicle: saline",163 % of control
same,T/C,"dose: 5.3 mg/kg/injection, schedule: Q01DX009 (ip), vehicle: saline",157 % of control
same,T/C,"dose: 5.4 mg/kg/injection, schedule: Q04DX003 (ip), vehicle: water",171 % of control
same,T/C,"dose: 5.6 mg/kg/injection, schedule: Q01DX001 (ip), vehicle: water",165 % of control
same,T/C,"dose: 6.25 mg/kg/injection, schedule: Q04DX003 (ip), vehicle: saline",205 % of control
same,T/C,"dose: 7.5 mg/kg/injection, schedule: Q01DX001 (ip), vehicle: water",177 % of control
same,T/C,"dose: 8.0 mg/kg/injection, schedule: Q01DX001 (ip), vehicle: saline",163 % of control
same,T/C,"dose: 8.0 mg/kg/injection, schedule: Q01DX005 (ip), vehicle: saline",229 % of control
same,T/C,"dose: 8.0 mg/kg/injection, schedule: Q01DX005 (ip), vehicle: suspension in saline",174 % of control
same,T/C,"dose: 8.0 mg/kg/injection, schedule: Q01DX005 (iv), vehicle: suspension in saline",151 % of control
same,T/C,"dose: 8.0 mg/kg/injection, schedule: Q01DX009 (ip), vehicle: other",189 % of control
same,T/C,"dose: 8.0 mg/kg/injection, schedule: Q01DX009 (ip), vehicle: saline",90 % of control
same,T/C,"dose: 8.0 mg/kg/injection, schedule: Q04DX003 (ip), vehicle: saline",163 % of control
same,T/C,"dose: 8.0 mg/kg/injection, schedule: Q04DX003 (ip), vehicle: water",116 % of control and 190 % of control and 215 % of control
same,T/C,"dose: 8.3 mg/kg/injection, schedule: Q01DX009 (ip), vehicle: saline",90 % of control
same,T/C,"dose: 9.0 mg/kg/injection, schedule: Q04DX003 (ip), vehicle: water",175 % of control
same,T/C,"dose: 10.0 mg/kg/injection, schedule: Q01DX001 (ip), vehicle: clinical formulation",160 % of control
same,T/C,"dose: 10.0 mg/kg/injection, schedule: Q01DX001 (ip), vehicle: water",181 % of control
same,T/C,"dose: 12.0 mg/kg/injection, schedule: Q01DX001 (ip), vehicle: clinical formulation",164 % of control
same,T/C,"dose: 12.5 mg/kg/injection, schedule: Q04DX003 (ip), vehicle: saline",187 % of control
same,T/C,"dose: 13.3 mg/kg/injection, schedule: Q01DX001 (ip), vehicle: saline",113 % of control
same,T/C,"dose: 13.3 mg/kg/injection, schedule: Q04DX003 (ip), vehicle: saline",109 % of control
same,T/C,"dose: 14.0 mg/kg/injection, schedule: Q01DX001 (ip), vehicle: clinical formulation",167 % of control
same,T/C,"dose: 16.0 mg/kg/injection, schedule: Q01DX001 (ip), vehicle: clinical formulation",188 % of control
same,T/C,"dose: 16.0 mg/kg/injection, schedule: Q01DX005 (iv), vehicle: saline",211 % of control
same,T/C,"dose: 16.0 mg/kg/injection, schedule: Q04DX003 (ip), vehicle: water",180 % of control and 318 % of control
same,T/C,"dose: 18.0 mg/kg/injection, schedule: Q01DX001 (ip), vehicle: clinical formulation",179 % of control
same,T/C,"dose: 22.2 mg/kg/injection, schedule: Q01DX001 (ip), vehicle: saline",95 % of control
same,T/C,"dose: 24.0 mg/kg/injection, schedule: Q04DX003 (ip), vehicle: water",171 % of control
same,T/C,"dose: 32.0 mg/kg/injection, schedule: Q04DX003 (ip), vehicle: water",163 % of control and 233 % of control
same,T/C,"dose: 48.0 mg/kg/injection, schedule: Q04DX003 (ip), vehicle: water",117 % of control
same,T/C,"dose: 64.0 mg/kg/injection, schedule: Q04DX003 (ip), vehicle: water",109 % of control and 114 % of control
same,T/C,"dose: 96.0 mg/kg/injection, schedule: Q04DX003 (ip), vehicle: water",89 % of control
CCCCOC(=O)/C=C(\Cl)C(=O)OCCCC,T/C,"dose: 12.5 mg/kg/injection, schedule: Q01DX009 (ip), vehicle: saline with Tween-80",102 % of control and 106 % of control and 111 % of control
same,T/C,"dose: 25.0 mg/kg/injection, schedule: Q01DX009 (ip), vehicle: saline with Tween-80",111 % of control and 114 % of control and 118 % of control
same,T/C,[1],86 % of control
CNC1C(c2ccc(C)cc2)=NN(c2ccccc2)C1c1ccccc1 (stereo unspecified),T/C,"dose: 100.0 mg/kg/injection, schedule: Q01DX001 (ip), vehicle: saline sonified",100 % of control
same,T/C,"dose: 200.0 mg/kg/injection, schedule: Q01DX001 (ip), vehicle: saline sonified",100 % of control
same,T/C,"dose: 400.0 mg/kg/injection, schedule: Q01DX001 (ip), vehicle: saline sonified",105 % of control
C[N+](C)(C)CCC[n+]1ccc(CCn2ccc3ccccc32)cc1,T/C,"dose: 25.0 mg/kg/injection, schedule: Q01DX001 (ip), vehicle: saline",93 % of control
same,T/C,"dose: 50.0 mg/kg/injection, schedule: Q01DX001 (ip), vehicle: saline",92 % of control
same,T/C,"dose: 100.0 mg/kg/injection, schedule: Q01DX001 (ip), vehicle: saline",102 % of control
Oc1ccccc1CNc1ncc(Cl)cc1Cl,T/C,"dose: 50.0 mg/kg/injection, schedule: Q01DX009 (ip), vehicle: saline with Tween-80",100 % of control
same,T/C,[1],88 % of control
same,T/C,"dose: 200.0 mg/kg/injection, schedule: Q01DX009 (ip), vehicle: saline with Tween-80",94 % of control
NC(=O)CC1=Cc2c(ccc3ccc(O)cc23)C1,T/C,"dose: 12.5 mg/kg/injection, schedule: Q01DX009 (ip), vehicle: distilled water + Tween-80",97 % of control
same,T/C,"dose: 25.0 mg/kg/injection, schedule: Q01DX009 (ip), vehicle: distilled water + Tween-80",91 % of control
same,T/C,"dose: 50.0 mg/kg/injection, schedule: Q01DX009 (ip), vehicle: distilled water + Tween-80",102 % of control
same,T/C,"dose: 100.0 mg/kg/injection, schedule: Q01DX009 (ip), vehicle: distilled water + Tween-80",93 % of control
same,T/C,"dose: 200.0 mg/kg/injection, schedule: Q01DX009 (ip), vehicle: distilled water + Tween-80",90 % of control
O=C1OC(c2c[nH]c3ccccc3c2=O)c2ccccc21 (stereo unspecified),T/C,"dose: 60.0 mg/kg/injection, schedule: Q01DX005 (ip), vehicle: saline with Tween-80",103 % of control
same,T/C,"dose: 120.0 mg/kg/injection, schedule: Q01DX005 (ip), vehicle: saline with Tween-80",95 % of control
same,T/C,"dose: 240.0 mg/kg/injection, schedule: Q01DX005 (ip), vehicle: saline with Tween-80",88 % of control
